# Experimental data: PubChem BioAssay AID328 (DTP/NCI, 2004)
# “And” between values parts separate entries of the source, which are not always exact repeats. Identical values can stand only once. Toxic doses and inconclusive results are not listed.
# Test system: BDF1 mice, P388 leukemia ip, median survival T/C
# Assay: NCI In Vivo Anticancer Drug Screen. Data for tumor model P388 Leukemia (intraperitoneal) in B6D2F1 (BDF1) mice
# Conditions: endpoint: median survival time, higher = longer survival
# Outline: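 Transplantable tumour in mice; compound vs vehicle dosing; survival scored; ratio of treated to control reported.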
# [1] = dose: 50.0 mg/kg/injection, schedule: Q01DX009 (ip), vehicle: Klucel (hydroxypropylcellulose) (HPC)
# [2] = dose: 100.0 mg/kg/injection, schedule: Q01DX009 (ip), vehicle: Klucel (hydroxypropylcellulose) (HPC)
# [3] = dose: 200.0 mg/kg/injection, schedule: Q01DX009 (ip), vehicle: Klucel (hydroxypropylcellulose) (HPC)
# [4] = dose: 100.0 mg/kg/injection, schedule: Q01DX009 (ip), vehicle: saline with Tween-80
# [5] = dose: 200.0 mg/kg/injection, schedule: Q01DX009 (ip), vehicle: saline with Tween-80
# [6] = dose: 3.12 mg/kg/injection, schedule: Q01DX009 (ip), vehicle: saline
# [7] = dose: 6.25 mg/kg/injection, schedule: Q01DX009 (ip), vehicle: saline
# [8] = dose: 50.0 mg/kg/injection, schedule: Q04DX003 (ip), vehicle: Klucel (hydroxypropylcellulose) (HPC)
# [9] = dose: 100.0 mg/kg/injection, schedule: Q04DX003 (ip), vehicle: Klucel (hydroxypropylcellulose) (HPC)
# [10] = dose: 200.0 mg/kg/injection, schedule: Q04DX003 (ip), vehicle: Klucel (hydroxypropylcellulose) (HPC)
# [11] = dose: 50.0 mg/kg/injection, schedule: Q01DX009 (ip), vehicle: saline with Tween-80
# [12] = dose: 100.0 mg/kg/injection, schedule: Q04DX003 (ip), vehicle: saline with Tween-80
# [13] = dose: 200.0 mg/kg/injection, schedule: Q04DX003 (ip), vehicle: saline with Tween-80
# [14] = dose: 400.0 mg/kg/injection, schedule: Q04DX003 (ip), vehicle: saline with Tween-80
# [15] = dose: 25.0 mg/kg/injection, schedule: Q01DX009 (ip), vehicle: saline with Tween-80
# [16] = dose: 100.0 mg/kg/injection, schedule: Q04DX003 (ip), vehicle: saline
# [17] = dose: 25.0 mg/kg/injection, schedule: Q01DX009 (ip), vehicle: Klucel (hydroxypropylcellulose) (HPC)
smiles,measurement,setting,value
N#CCCN1c2ccccc2Sc2ccccc21,T/C,[1],110 % of control
same,T/C,[2],105 % of control
same,T/C,[3],110 % of control
COc1cc(/C=N/N=C(\N)N[N+](=O)[O-])cc(OC)c1OC,T/C,"dose: 100.0 mg/kg/injection, schedule: Q01DX001 (ip), vehicle: saline with Tween-80",90 % of control
same,T/C,"dose: 200.0 mg/kg/injection, schedule: Q01DX001 (ip), vehicle: saline with Tween-80",90 % of control
same,T/C,"dose: 400.0 mg/kg/injection, schedule: Q01DX001 (ip), vehicle: saline with Tween-80",90 % of control
CC1(C)OC2OC(COC(=O)c3ccccc3)C(=O)C2O1 (stereo unspecified),T/C,[4],92 % of control
same,T/C,[5],92 % of control
same,T/C,"dose: 400.0 mg/kg/injection, schedule: Q01DX009 (ip), vehicle: saline with Tween-80",101 % of control
c1cc[c]([Pb]([c]2ccccc2)([c]2ccccc2)[n]2cccc2)cc1,T/C,[6],90 % of control
same,T/C,[7],109 % of control
same,T/C,"dose: 12.5 mg/kg/injection, schedule: Q01DX009 (ip), vehicle: saline",109 % of control
same,T/C,"dose: 21.25 mg/kg/injection, schedule: Q04DX003 (ip), vehicle: Klucel (hydroxypropylcellulose) (HPC)",100 % of control
same,T/C,"dose: 42.5 mg/kg/injection, schedule: Q04DX003 (ip), vehicle: Klucel (hydroxypropylcellulose) (HPC)",113 % of control
CCN(CC)c1ccc(C(=C(c2ccc(N(CC)CC)cc2)c2ccc(N(CC)CC)cc2)c2ccc(N(CC)CC)cc2)cc1,T/C,[8],100 % of control
same,T/C,[9],104 % of control
same,T/C,[10],90 % of control
c1ccc(NNc2c3ccccc3nc3ccccc23)cc1,T/C,[11],102 % of control
same,T/C,[4],102 % of control
COc1cc2c(cc1OC(C)=O)C(=O)CCCC2,T/C,[12],89 % of control
same,T/C,[13],103 % of control
same,T/C,[14],99 % of control
CCOC(=O)C(C(C)=O)C(=O)OCC,T/C,"dose: 25.0 mg/kg/injection, schedule: Q04DX003 (ip), vehicle: other",90 % of control
same,T/C,"dose: 50.0 mg/kg/injection, schedule: Q01DX009 (ip), vehicle: other",113 % of control
same,T/C,"dose: 50.0 mg/kg/injection, schedule: Q04DX003 (ip), vehicle: other",99 % of control
same,T/C,"dose: 100.0 mg/kg/injection, schedule: Q01DX009 (ip), vehicle: other",100 % of control
same,T/C,"dose: 100.0 mg/kg/injection, schedule: Q04DX003 (ip), vehicle: other",99 % of control
same,T/C,"dose: 200.0 mg/kg/injection, schedule: Q04DX003 (ip), vehicle: other",92 % of control
same,T/C,"dose: 400.0 mg/kg/injection, schedule: Q01DX009 (ip), vehicle: other",88 % of control
same,T/C,"dose: 400.0 mg/kg/injection, schedule: Q04DX003 (ip), vehicle: other",110 % of control
CC(C)CNC(=O)C12CC3CC(CC(C3)C1)C2,T/C,"dose: 12.5 mg/kg/injection, schedule: Q01DX009 (ip), vehicle: saline with Tween-80",104 % of control
same,T/C,[15],107 % of control
same,T/C,[11],104 % of control
same,T/C,[4],101 % of control
COc1cc(/C=N/NC(=O)C[n+]2ccccc2)cc(OC)c1,T/C,"dose: 25.0 mg/kg/injection, schedule: Q01DX009 (ip), vehicle: saline",104 % of control
same,T/C,"dose: 25.0 mg/kg/injection, schedule: Q04DX003 (ip), vehicle: saline",109 % of control
same,T/C,"dose: 50.0 mg/kg/injection, schedule: Q01DX009 (ip), vehicle: saline",100 % of control
same,T/C,"dose: 50.0 mg/kg/injection, schedule: Q04DX003 (ip), vehicle: saline",104 % of control
same,T/C,[16],86 % of control
O=c1c2ccccc2[nH]c2ccccc12,T/C,"dose: 50.0 mg/kg/injection, schedule: Q04DX003 (ip), vehicle: saline with Tween-80",105 % of control
same,T/C,[12],99 % of control
same,T/C,[13],99 % of control
same,T/C,[14],96 % of control
CN(C)N=Nc1ccccc1[N+](=O)[O-],T/C,[17],107 % of control
same,T/C,[2],92 % of control
C=C1C(=O)OC2CC(C)C3(O)CCC(C)(CC(OC(=O)C(C)C)C12)O3 (stereo unspecified),T/C,"dose: 40.0 mg/kg/injection, schedule: Q01DX009 (ip), vehicle: saline",100 % of control
same,T/C,[1],117 % of control
same,T/C,[2],117 % of control and 118 % of control
COC(OC)c1cc(=O)[nH]c(NC(=O)C(Cl)Cl)n1,T/C,[12],112 % of control
same,T/C,[13],95 % of control
same,T/C,[14],104 % of control
COc1ccc(C=NCCc2ccc(OC)c(OC)c2)cc1OC,T/C,"dose: 100.0 mg/kg/injection, schedule: Q01DX009 (ip), vehicle: saline",97 % of control
same,T/C,"dose: 200.0 mg/kg/injection, schedule: Q01DX009 (ip), vehicle: saline",97 % of control
same,T/C,"dose: 400.0 mg/kg/injection, schedule: Q01DX009 (ip), vehicle: saline",105 % of control
Nc1ccn([C@@H](C=O)O[C@@H](C=O)CO)c(=O)n1,T/C,"dose: 8.8 mg/kg/injection, schedule: Q01DX009 (ip), vehicle: saline",115 % of control
same,T/C,"dose: 66.0 mg/kg/injection, schedule: Q04DX003 (ip), vehicle: saline",100 % of control
same,T/C,[16],112 % of control
same,T/C,"dose: 150.0 mg/kg/injection, schedule: Q04DX003 (ip), vehicle: saline",120 % of control
same,T/C,"dose: 200.0 mg/kg/injection, schedule: Q04DX003 (ip), vehicle: saline",150 % of control
same,T/C,"dose: 400.0 mg/kg/injection, schedule: Q04DX003 (ip), vehicle: saline",181 % of control
O=C1CC(SC(=S)C2CCCC2=O)C(=O)N1 (stereo unspecified),T/C,[11],100 % of control
same,T/C,[4],110 % of control
same,T/C,[5],89 % of control
COc1cccc2c1C(=O)c1c(O)c3c(c(O)c1C2=O)CC(O)(/C(C)=N/NC(=O)CCC(=O)N/N=C(\C)C1(O)Cc2c(O)c4c(c(O)c2C(OC2CC(N)C(O)C(C)O2)C1)C(=O)c1c(OC)cccc1C4=O)CC3OC1CC(N)C(O)C(C)O1 (stereo unspecified),T/C,"dose: 14.4 mg/kg/injection, schedule: Q04DX003 (ip), vehicle: water",158 % of control
same,T/C,"dose: 40.0 mg/kg/injection, schedule: Q04DX003 (ip), vehicle: water",109 % of control
COc1ccc(C=Nc2ccccc2)cc1,T/C,[12],100 % of control
same,T/C,[13],100 % of control
same,T/C,[14],100 % of control
C1CN2CCN1CC2.[Cl][Ni+][Cl],T/C,"dose: 0.78 mg/kg/injection, schedule: Q01DX009 (ip), vehicle: saline",103 % of control
same,T/C,"dose: 1.56 mg/kg/injection, schedule: Q01DX009 (ip), vehicle: saline",92 % of control and 99 % of control
same,T/C,[6],99 % of control and 103 % of control
same,T/C,[7],100 % of control and 101 % of control
O=C(O)CCSc1ccccc1,T/C,[1],90 % of control
same,T/C,[8],95 % of control
same,T/C,[2],100 % of control
same,T/C,[9],100 % of control
same,T/C,[3],109 % of control
same,T/C,[10],100 % of control
Cc1ccccc1NC(=O)c1ccc([N+](=O)[O-])cc1,T/C,[12],96 % of control
same,T/C,[13],108 % of control
same,T/C,[14],96 % of control
CC(=O)Nc1ccn(C2OC(COC(C)=O)C(OC(C)=O)C2OC(C)=O)c(=O)n1 (stereo unspecified),T/C,[12],109 % of control
same,T/C,"dose: 177.0 mg/kg/injection, schedule: Q04DX003 (ip), vehicle: saline with Tween-80",104 % of control
same,T/C,"dose: 266.0 mg/kg/injection, schedule: Q04DX003 (ip), vehicle: saline with Tween-80",100 % of control and 116 % of control
same,T/C,[14],108 % of control and 118 % of control
CCOC(=O)[C@]1(Br)CC[C@@]1(Br)C(=O)OCC,T/C,[15],112 % of control
same,T/C,[11],113 % of control and 114 % of control
same,T/C,[4],117 % of control
CNC(=S)N/N=C(\C)c1snc(C)c1Br,T/C,[15],94 % of control
same,T/C,[11],103 % of control
same,T/C,[4],96 % of control
N#CC(Nc1ccccc1)C1CC1c1ccccc1 (stereo unspecified),T/C,"dose: 12.5 mg/kg/injection, schedule: Q01DX009 (ip), vehicle: Klucel (hydroxypropylcellulose) (HPC)",90 % of control
same,T/C,[17],90 % of control
same,T/C,[1],90 % of control
CN(c1ccccc1)P(=O)(N1CC1)N1CC1,T/C,"dose: 25.0 mg/kg/injection, schedule: Q04DX003 (ip), vehicle: saline with Tween-80",172 % of control
same,T/C,"dose: 37.5 mg/kg/injection, schedule: Q04DX003 (ip), vehicle: saline with Tween-80",250 % of control
CC(C)N(C(C)C)S(=O)(=O)c1ccccc1C(O)(c1ccccc1)c1ccccc1,T/C,[15],90 % of control
same,T/C,[11],86 % of control
same,T/C,[4],90 % of control
CN(c1ccccc1)c1cc2c(cc1[N+](=O)[O-])no[n+]2[O-],T/C,"dose: 15.0 mg/kg/injection, schedule: Q01DX009 (ip), vehicle: saline with Tween-80",118 % of control
same,T/C,"dose: 60.0 mg/kg/injection, schedule: Q01DX009 (ip), vehicle: saline with Tween-80",113 % of control
CC(=O)Nc1cc2c(cc1[N+](=O)[O-])-c1ccccc1C2O (stereo unspecified),T/C,[4],100 % of control
same,T/C,[12],100 % of control
same,T/C,[5],90 % of control
same,T/C,[13],104 % of control
same,T/C,[14],104 % of control
